Tested on: MV-4-11 cells
Experiment: Gene expression microarray analysis (Affymetrix PrimeView) and GSEA
Format: cell-based, human
Set-up: RFU PODN (11730768_x_at) / Fold change /veh PODN (11730768_x_at) / RFU LINC00158 (11744669_a_at) / Fold change /veh LINC00158 (11744669_a_at) / RFU DUSP10 (11751237_a_at) / Fold change /veh DUSP10 (11751237_a_at) / RFU ID3 (11757404_x_at) / Fold change /veh ID3 (11757404_x_at) / RFU PLEKHG5 (11737974_s_at) / Fold change /veh PLEKHG5 (11737974_s_at) / RFU LRRC4B (11730491_at) / Fold change /veh LRRC4B (11730491_at) / RFU GIMAP4 (11747438_a_at) / Fold change /veh GIMAP4 (11747438_a_at) / RFU KRT8 (11758183_x_at) / Fold change /veh KRT8 (11758183_x_at) / RFU CNN1 (11734310_a_at) / Fold change /veh CNN1 (11734310_a_at) / RFU VPS37D (11726825_at) / Fold change /veh VPS37D (11726825_at) / RFU C10orf10 (11716522_x_at) / Fold change /veh C10orf10 (11716522_x_at) / RFU KIR2DL2 /// KIR2DL4 /// KIR2DL5A /// KIR2DL5B /// KIR2DS1 /// KIR2DS2 /// KIR2DS3 /// KIR2DS4 /// KIR3DL3 /// KIR3DL3 /// KIR3DS1 (11738374_at) / Fold change /veh KIR2DL2 /// KIR2DL4 /// KIR2DL5A /// KIR2DL5B /// KIR2DS1 /// KIR2DS2 /// KIR2DS3 /// KIR2DS4 /// KIR3DL3 /// KIR3DL3 /// KIR3DS1 (11738374_at) / RFU C1QL1 (11718748_at) / Fold change /veh C1QL1 (11718748_at) / RFU TMPRSS4 (11747572_a_at) / Fold change /veh TMPRSS4 (11747572_a_at) / RFU HAMP (11756126_x_at) / Fold change /veh HAMP (11756126_x_at) / RFU RNFT2 (11725882_a_at) / Fold change /veh RNFT2 (11725882_a_at) / RFU NR4A2 (11747474_a_at) / Fold change /veh NR4A2 (11747474_a_at) / RFU ABCC12 (11746883_a_at) / Fold change /veh ABCC12 (11746883_a_at) / RFU TMEM136 (11760407_x_at) / Fold change /veh TMEM136 (11760407_x_at) / RFU CLDN22 /// WWC2 (11732394_at) / Fold change /veh CLDN22 /// WWC2 (11732394_at) / RFU HLA-DPB1 (11760878_x_at) / Fold change /veh HLA-DPB1 (11760878_x_at) / RFU SPINT1 (11716480_a_at) / Fold change /veh SPINT1 (11716480_a_at) / RFU GAP43 (11754022_s_at) / Fold change /veh GAP43 (11754022_s_at) / RFU A4GNT (11735810_at) / Fold change /veh A4GNT (11735810_at) / RFU PRB3 (11715151_x_at) / Fold change /veh PRB3 (11715151_x_at) / RFU TUBB4B (11761932_at) / Fold change /veh TUBB4B (11761932_at) / RFU CAPN14 (11732068_a_at) / Fold change /veh CAPN14 (11732068_a_at) / RFU TMCC2 (11721928_a_at) / Fold change /veh TMCC2 (11721928_a_at) / RFU IRGQ (11745062_a_at) / Fold change /veh IRGQ (11745062_a_at) / RFU FAM174B (11720279_a_at) / Fold change /veh FAM174B (11720279_a_at) / RFU TMPRSS4 (11748680_a_at) / Fold change /veh TMPRSS4 (11748680_a_at) / RFU FAM212B (11763350_a_at) / Fold change /veh FAM212B (11763350_a_at) / RFU PLEKHG5 (11743358_a_at) / Fold change /veh PLEKHG5 (11743358_a_at) / RFU ZSCAN30 (11745921_a_at) / Fold change /veh ZSCAN30 (11745921_a_at) / RFU CMKLR1 (11741424_a_at) / Fold change /veh CMKLR1 (11741424_a_at) / RFU LOC101060620 /// MAPK8IP1 (11723275_at) / Fold change /veh LOC101060620 /// MAPK8IP1 (11723275_at) / RFU SPTSSB (11747773_x_at) / Fold change /veh SPTSSB (11747773_x_at) / RFU PRSS12 (11739890_at) / Fold change /veh PRSS12 (11739890_at) / RFU BIN1 (11741810_x_at) / Fold change /veh BIN1 (11741810_x_at) / RFU WNT11 (11732464_a_at) / Fold change /veh WNT11 (11732464_a_at) / RFU C10orf10 (11716521_a_at) / Fold change /veh C10orf10 (11716521_a_at) / RFU C5orf56 (11738089_at) / Fold change /veh C5orf56 (11738089_at) / RFU CYB561 (11721691_x_at) / Fold change /veh CYB561 (11721691_x_at) / RFU ANKRD19P (11752326_a_at) / Fold change /veh ANKRD19P (11752326_a_at) / RFU OR2T12 /// OR2T33 /// OR2T8 (11738714_s_at) / Fold change /veh OR2T12 /// OR2T33 /// OR2T8 (11738714_s_at) / RFU VCAN (11748164_a_at) / Fold change /veh VCAN (11748164_a_at) / RFU JSRP1 (11732532_at) / Fold change /veh JSRP1 (11732532_at) / RFU KRTAP10-11 (11738290_x_at) / Fold change /veh KRTAP10-11 (11738290_x_at) / RFU MYO3A (11730013_a_at) / Fold change /veh MYO3A (11730013_a_at) / RFU EBF3 (11725865_a_at) / Fold change /veh EBF3 (11725865_a_at) / RFU CAMK2N1 (11719241_x_at) / Fold change /veh CAMK2N1 (11719241_x_at) / RFU C5orf56 (11738088_a_at) / Fold change /veh C5orf56 (11738088_a_at) / RFU OLFML3 (11715873_a_at) / Fold change /veh OLFML3 (11715873_a_at) / RFU LOC100653217 /// NTM (11731650_a_at) / Fold change /veh LOC100653217 /// NTM (11731650_a_at) / RFU MAPK11 (11762145_a_at) / Fold change /veh MAPK11 (11762145_a_at) / RFU FIZ1 (11724087_x_at) / Fold change /veh FIZ1 (11724087_x_at) / RFU OASL (11726364_x_at) / Fold change /veh OASL (11726364_x_at) / RFU SOX15 (11748057_x_at) / Fold change /veh SOX15 (11748057_x_at) / RFU CD79A (11719716_a_at) / Fold change /veh CD79A (11719716_a_at) / RFU HIST1H1D (11736915_at) / Fold change /veh HIST1H1D (11736915_at) / RFU CASKIN2 (11723855_a_at) / Fold change /veh CASKIN2 (11723855_a_at) / RFU LOC730098 (11760151_x_at) / Fold change /veh LOC730098 (11760151_x_at) / RFU OR4N2 (11742367_at) / Fold change /veh OR4N2 (11742367_at) / RFU PRRT2 (11749266_a_at) / Fold change /veh PRRT2 (11749266_a_at) / RFU SNX32 (11753110_a_at) / Fold change /veh SNX32 (11753110_a_at) / RFU CDHR5 (11726645_a_at) / Fold change /veh CDHR5 (11726645_a_at) / RFU RCAN1 (11760418_a_at) / Fold change /veh RCAN1 (11760418_a_at) / RFU FAM167A (11723789_a_at) / Fold change /veh FAM167A (11723789_a_at) / RFU FAM26E (11764081_at) / Fold change /veh FAM26E (11764081_at) / RFU ISYNA1 (11749810_s_at) / Fold change /veh ISYNA1 (11749810_s_at) / RFU ACY1 (11761880_at) / Fold change /veh ACY1 (11761880_at) / RFU 11764098_at / Fold change /veh 11764098_at / RFU SAMD14 (11745864_x_at) / Fold change /veh SAMD14 (11745864_x_at) / RFU NPB (11741838_a_at) / Fold change /veh NPB (11741838_a_at) / RFU TMPRSS6 (11731388_a_at) / Fold change /veh TMPRSS6 (11731388_a_at) / RFU KRTAP10-2 (11738614_at) / Fold change /veh KRTAP10-2 (11738614_at) / RFU ARHGAP8 /// PRR5-ARHGAP8 (11727945_x_at) / Fold change /veh ARHGAP8 /// PRR5-ARHGAP8 (11727945_x_at) / RFU KRTAP5-7 /// NADSYN1 (11734609_at) / Fold change /veh KRTAP5-7 /// NADSYN1 (11734609_at) / RFU RASL12 (11751679_a_at) / Fold change /veh RASL12 (11751679_a_at) / RFU CDKN2B (11736163_a_at) / Fold change /veh CDKN2B (11736163_a_at) / RFU PRF1 (11729649_at) / Fold change /veh PRF1 (11729649_at) / RFU, ZNF638 /// ZNF638-IT1 / Fold change vs veh, ZNF638 /// ZNF638-IT1 / RFU, PANK3 / Fold change vs veh, PANK3 / RFU, SH3YL1 / Fold change vs veh, SH3YL1 / RFU, ZEB2 / Fold change vs veh, ZEB2 / RFU, NRIP1 / Fold change vs veh, NRIP1 / RFU, PTTG1IP / Fold change vs veh, PTTG1IP / RFU, CAPN2 / Fold change vs veh, CAPN2 / RFU, MED14 / Fold change vs veh, MED14 / RFU, SNORA58 / Fold change vs veh, SNORA58 / RFU, C1orf63 / Fold change vs veh, C1orf63 / RFU, LRRFIP1 / Fold change vs veh, LRRFIP1 / RFU, NDUFAF7 / Fold change vs veh, NDUFAF7 / RFU, SLC12A2 / Fold change vs veh, SLC12A2 / RFU, IBTK / Fold change vs veh, IBTK / RFU, ESF1 / Fold change vs veh, ESF1 / Fold change vs veh, TMEM50B / RFU, TAOK1 / Fold change vs veh, TAOK1 / RFU, ACBD3 / Fold change vs veh, ACBD3 / RFU, TMA16 / Fold change vs veh, TMA16 / RFU, RWDD3 / Fold change vs veh, RWDD3 / RFU, BCAT1 / Fold change vs veh, BCAT1 / RFU, EDEM3 / Fold change vs veh, EDEM3 / RFU, TMEM33 / Fold change vs veh, TMEM33 / RFU, WDR75 / Fold change vs veh, WDR75 / RFU, AHCTF1 / Fold change vs veh, AHCTF1 / RFU, TFRC / Fold change vs veh, TFRC / RFU, ZDHHC17 / Fold change vs veh, ZDHHC17 / RFU, NOM1 / Fold change vs veh, NOM1 / RFU, ARL8B / Fold change vs veh, ARL8B / RFU, ZBTB11 / Fold change vs veh, ZBTB11 / RFU, TAMM41 / Fold change vs veh, TAMM41 / RFU, KIAA1704 /// LOC100996395 / Fold change vs veh, KIAA1704 /// LOC100996395 / RFU, ING1 / Fold change vs veh, ING1 / RFU, TRMT61B / Fold change vs veh, TRMT61B / RFU, FUBP3 / Fold change vs veh, FUBP3 / RFU, TP53 / Fold change vs veh, TP53 / RFU, TNKS2 / Fold change vs veh, TNKS2 / RFU, ZFP14 / Fold change vs veh, ZFP14 / RFU, ACTR2 / Fold change vs veh, ACTR2 / RFU, PPP3R1 / Fold change vs veh, PPP3R1 / RFU, PIK3R1 / Fold change vs veh, PIK3R1 / RFU, HNRNPA1 / Fold change vs veh, HNRNPA1 / RFU, RNF170 / Fold change vs veh, RNF170 / RFU, ZNF28 / Fold change vs veh, ZNF28 / RFU, RNGTT / Fold change vs veh, RNGTT / RFU, OGT / Fold change vs veh, OGT / RFU, BRD1 / Fold change vs veh, BRD1 / RFU, MARS / Fold change vs veh, MARS / RFU, ZNF655 / Fold change vs veh, ZNF655 / RFU, FAHD1 / Fold change vs veh, FAHD1 / RFU, BDP1 / Fold change vs veh, BDP1 / RFU, LRRCC1 / Fold change vs veh, LRRCC1 / RFU, ARID1A / Fold change vs veh, ARID1A / RFU, ZNF146 / Fold change vs veh, ZNF146 / RFU, ZNF330 / Fold change vs veh, ZNF330 / RFU, GPN3 / Fold change vs veh, GPN3 / RFU, C9orf123 / Fold change vs veh, C9orf123 / RFU, N4BP2L2 / Fold change vs veh, N4BP2L2 / RFU, ARFIP1 / Fold change vs veh, ARFIP1 / RFU, FAM179B / Fold change vs veh, FAM179B / RFU, BCL10 / Fold change vs veh, BCL10 / RFU, UHRF1BP1L / Fold change vs veh, UHRF1BP1L / RFU, BET1 / Fold change vs veh, BET1 / RFU, CNOT2 / Fold change vs veh, CNOT2 / RFU, ZNF268 / Fold change vs veh, ZNF268 / Fold change vs veh, ZNF507 / RFU, DGCR2 / Fold change vs veh, DGCR2 / RFU, WDSUB1 / Fold change vs veh, WDSUB1 / Fold change vs veh, HSP90B1 /// MIR3652 / RFU, ADSS / Fold change vs veh, ADSS / RFU, GK / Fold change vs veh, GK / RFU, ZNF148 / Fold change vs veh, ZNF148 / RFU, TAF9 / Fold change vs veh, TAF9 / RFU, SLC1A5 / Fold change vs veh, SLC1A5 / RFU, SLMO2 / Fold change vs veh, SLMO2 / RFU, ABCC4 / Fold change vs veh, ABCC4 / RFU, LOC101060439 /// RAP1B / Fold change vs veh, LOC101060439 /// RAP1B / RFU, RFX7 / Fold change vs veh, RFX7 / RFU, GTPBP10 / Fold change vs veh, GTPBP10 / RFU, CNEP1R1 / Fold change vs veh, CNEP1R1 / RFU, BIVM-ERCC5 /// ERCC5 / Fold change vs veh, BIVM-ERCC5 /// ERCC5 / RFU, ILF3 / Fold change vs veh, ILF3 / RFU 11762660_at / Fold change /veh 11762660_at / RFU VCAN (11757783_s_at) / Fold change /veh VCAN (11757783_s_at) / RFU DDX43 (11728927_at) / Fold change /veh DDX43 (11728927_at) / RFU KRT8 (11758188_x_at) / Fold change /veh KRT8 (11758188_x_at) / RFU NKD1 (11759106_at) / Fold change /veh NKD1 (11759106_at) / RFU SRD5A1 (11742802_a_at) / Fold change /veh SRD5A1 (11742802_a_at) / RFU TPSAB1 /// TPSB2 (11721975_s_at) / Fold change /veh TPSAB1 /// TPSB2 (11721975_s_at) / RFU GSTM3 (11746129_a_at) / Fold change /veh GSTM3 (11746129_a_at) / RFU IL23R (11737362_x_at) / Fold change /veh IL23R (11737362_x_at) / RFU TMEM51 (11727254_a_at) / Fold change /veh TMEM51 (11727254_a_at) / RFU PIWIL2 (11732686_x_at) / Fold change /veh PIWIL2 (11732686_x_at) / RFU ORM1 (11744905_x_at) / Fold change /veh ORM1 (11744905_x_at) / RFU CCDC152 (11743942_at) / Fold change /veh CCDC152 (11743942_at) / RFU ECM1 (11717891_a_at) / Fold change /veh ECM1 (11717891_a_at) / RFU IL23R (11748794_a_at) / Fold change /veh IL23R (11748794_a_at) / RFU TNFAIP8L3 (11732012_x_at) / Fold change /veh TNFAIP8L3 (11732012_x_at) / RFU MBOAT4 (11741988_at) / Fold change /veh MBOAT4 (11741988_at) / RFU 11764193_at / Fold change /veh 11764193_at / RFU TMEM53 (11763286_at) / Fold change /veh TMEM53 (11763286_at) / RFU MAGEB2 (11727129_at) / Fold change /veh MAGEB2 (11727129_at) / RFU TMEM200A (11744735_a_at) / Fold change /veh TMEM200A (11744735_a_at) / RFU CCDC152 (11751479_a_at) / Fold change /veh CCDC152 (11751479_a_at) / RFU FAM211A (11726209_a_at) / Fold change /veh FAM211A (11726209_a_at) / RFU RGS16 (11746705_a_at) / Fold change /veh RGS16 (11746705_a_at) / RFU VCAN (11755009_s_at) / Fold change /veh VCAN (11755009_s_at) / RFU RHOB (11743442_s_at) / Fold change /veh RHOB (11743442_s_at) / RFU RGS16 (11720943_a_at) / Fold change /veh RGS16 (11720943_a_at) / RFU RGS16 (11720944_at) / Fold change /veh RGS16 (11720944_at) / RFU, VPS4B / Fold change vs veh, VPS4B / RFU, CREB1 / Fold change vs veh, CREB1 / RFU, DNAJC13 / Fold change vs veh, DNAJC13 / RFU, GNAQ / Fold change vs veh, GNAQ / RFU, CDK5R1 / Fold change vs veh, CDK5R1 / RFU, ZRANB3 / Fold change vs veh, ZRANB3 / RFU, CUL4A / Fold change vs veh, CUL4A / RFU, CCNY / Fold change vs veh, CCNY / RFU, UFL1 / Fold change vs veh, UFL1 / RFU, COG3 / Fold change vs veh, COG3 / RFU, DIAPH2 / Fold change vs veh, DIAPH2 / RFU, SKA2 / Fold change vs veh, SKA2 / RFU, AFF3 / Fold change vs veh, AFF3 / RFU, LMF1 / Fold change vs veh, LMF1 / RFU, IPO11 / Fold change vs veh, IPO11 / RFU, DFFB / Fold change vs veh, DFFB / RFU, FOXP1 / Fold change vs veh, FOXP1 / RFU, CARD8 / Fold change vs veh, CARD8 / RFU, STRN3 / Fold change vs veh, STRN3 / RFU, ADK / Fold change vs veh, ADK / RFU, RASSF2 / Fold change vs veh, RASSF2 / RFU, WIPF1 / Fold change vs veh, WIPF1 / RFU, LARP1B / Fold change vs veh, LARP1B / RFU, RASA1 / Fold change vs veh, RASA1 / RFU, RB1 / Fold change vs veh, RB1 / RFU, PPFIA1 / Fold change vs veh, PPFIA1 / RFU, MAT2A / Fold change vs veh, MAT2A / RFU, CCT5 / Fold change vs veh, CCT5 / RFU, WDR92 / Fold change vs veh, WDR92 / RFU, CUX1 / Fold change vs veh, CUX1 / RFU, TTC7A / Fold change vs veh, TTC7A / RFU, TMEM135 / Fold change vs veh, TMEM135 / RFU, DEPTOR / Fold change vs veh, DEPTOR / RFU, CPM / Fold change vs veh, CPM / RFU, DNAJB6 / Fold change vs veh, DNAJB6 / RFU, CACNA2D3 / Fold change vs veh, CACNA2D3 / RFU, DTX4 / Fold change vs veh, DTX4 / RFU, TFCP2 / Fold change vs veh, TFCP2 / RFU, GMCL1 /// GMCL1P1 / Fold change vs veh, GMCL1 /// GMCL1P1 / RFU, AEBP2 / Fold change vs veh, AEBP2 / RFU, SNHG1 /// SNORD22 /// SNORD25 /// SNORD26 /// SNORD27 /// SNORD28 /// SNORD29 /// SNORD31 / Fold change vs veh, SNHG1 /// SNORD22 /// SNORD25 /// SNORD26 /// SNORD27 /// SNORD28 /// SNORD29 /// SNORD31 / Fold change (Aza/veh), C12orf56 (ProbeSet 11735607_a_at) / Fold change (ACY-1035/veh), C12orf56 (ProbeSet 11735607_a_at) / Fold change (Aza/veh), FGFR1OP (ProbeSet 11751329_s_at) / Fold change (ACY-1035/veh), FGFR1OP (ProbeSet 11751329_s_at) / Fold change (Aza/veh), VPS36 (ProbeSet 11739960_a_at) / Fold change (ACY-1035/veh), VPS36 (ProbeSet 11739960_a_at) / RFU SYPL1 (11715823_x_at) / Fold change /veh SYPL1 (11715823_x_at) / RFU IGFBP7 (11715501_s_at) / Fold change /veh IGFBP7 (11715501_s_at) / RFU REEP3 (11722064_at) / Fold change /veh REEP3 (11722064_at) / RFU IGLL1 (11728026_x_at) / Fold change /veh IGLL1 (11728026_x_at): dose or concentration left out as unconfirmed
Conditions: ProbeSet 11743580_s_at; LIST B

Nc1ncn([C@@H]2O[C@H](CO)[C@@H](O)[C@H]2O)c(=O)n1 [azacitidine]
Fold change vs veh, ACTR2: 0.91

Source: paper PMC5218480 (PLoS ONE, 2017)
